Reference: patent US20130042333A1, “MARKERS FOR CANCER PROGNOSIS AND THERAPY AND METHODS OF USE” (priority 2011, published 2013)

Assays:
[1] = system: HBCx-6 breast cancer xenograft; experiment: Tumor regression-regrowth assay, HBCx-6 xenograft; type: in vivo, human tumor in Swiss nude mice; conditions: HBCx-6 combination study; A/C 2/100 mg/kg; AZD2281 50 mg/kg i.p.
From the text: (§1) Tumor xenografts were generated by direct subcutaneous grafting into immunodeficient mice of human tumor surgical samples with informed written consent of the patients and maintained by serial transplantation. […] They are thus clinically relevant tumor models, as opposed to xenografts produced from tumor cell lines that have been obtained by in vitro culture and often passaged for many years (Fiebig, H. H. et al. Eur J Cancer 40, 802-820, 2004; Marangoni E., Vincent-Salomon A., Auger N. et al. Clin Cancer Res. 2007 Jul. 1; 13:3989-98).
(§2) Chemotherapeutic drugs were administered by intraperitoneal route according to the following doses and schedules: adriamycin, 2 mg/kg, q3wk (Doxorubicin®, Teva Pharmaceuticals, France) and Cyclophosphamide, 100 mg/kg, q3wk (Endoxan®, Baxter, France). […] Tumor volume was evaluated by measuring two perpendicular diameters of the tumor, with a calliper, biweekly during the treatment period and once a week during the follow-up period. […] Mice were ethically sacrificed when the tumor volume reached 2000 mm3 Individual tumor growth delays (TGD) is calculated as the time in days required for individual tumors to reach 3- to 5-fold the initial median tumor volume. The tumor growth delay index (TGDI) is calculated as the median growth delay in the treated group divided by the median growth delay in the control group. […]

[2] = system: SC61 small-cell lung cancer xenograft; experiment: Tumor regression-regrowth assay, SC61 xenograft; type: in vivo, human tumor in immunodeficient mice; conditions: x1 cycle
From the text: as §1
as §2, with “France). Irinotecan (Campto®, Pfizer Holding France), 50 mg/kg, q4dx4. Etoposide 12 mg/kg, qdx3. Ifosfamide 90 mg/kg, qdx3. bPARP inhibitor (AZD2281, Sequoia Research Products, UK) at 50 mg/kg (ip; qdx14). A second treatment cycle was performed with PARP inhibitor at 50 mg/kg (ip qdx5) during the nodule phase.” for “France).”, “group. The percentage ratio between the mean tumor volume of a treated group (T) and the mean tumor volume of the control group (C) is calculated.” for “group.”

[3] = system: TC305 colorectal tumor xenograft; experiment: Tumor regression-regrowth assay, TC305 xenograft; type: in vivo, human tumor in immunodeficient mice; conditions: x1 cycle, mg/kg: Ox 10, Cap 540, I 50, B 5, Cet 5
From the text: as §1
(§3) Chemotherapeutic drugs were administered by intraperitoneal route according to the following doses and schedules: adriamycin, 2 mg/kg, q3wk (Doxorubicin®, Teva Pharmaceuticals, France) and Cyclophosphamide, 100 mg/kg, q3wk (Endoxan®, Baxter, France). Irinotecan (Campto®, Pfizer Holding France), 50 mg/kg, q4dx4. Etoposide 12 mg/kg, qdx3. Ifosfamide 90 mg/kg, qdx3. bPARP inhibitor (AZD2281, Sequoia Research Products, UK) at 50 mg/kg (ip; qdx14). A second treatment cycle was performed with PARP inhibitor at 50 mg/kg (ip qdx5) during the nodule phase. Other pharmacological inhibitors are tested and administrated at the nodule phase: JAK1/2 Inhibitor (CP-690550) at 15 mg/kg (po qdx14), Epigallocatechin gallate (ECGC) (Sequoia Research Products, UK) at 30 mg/kg (ip qdx28), HDAC inhibitor (Trichostatine A), Retinoic acid at 50 mg/kg (ip qdx28) (Sigma-Aldrich, France). Breast tumor xenograft models were transplanted into 5-week old female Swiss nude mice, as described above, one tumor being transplanted into 5-10 recipients. When tumors reached a volume of 60-250 mm3, mice were individually identified and randomly assigned to the control or treated groups (12 to 20 mice per group). Tumor volume was evaluated by measuring two perpendicular diameters of the tumor, with a calliper, biweekly during the treatment period and once a week during the follow-up period. The formula TV (mm3)=[length (mm)×width (mm)2]/2 was used, where the length and the width were the longest and the shortest diameters of the tumor, respectively. All animals were weighted biweekly during the treatment period and the follow-up period. Mice were ethically sacrificed when the tumor volume reached 2000 mm3 Individual tumor growth delays (TGD) is calculated as the time in days required for individual tumors to reach 3- to 5-fold the initial median tumor volume. The tumor growth delay index (TGDI) is calculated as the median growth delay in the treated group divided by the median growth delay in the control group. The percentage ratio between the mean tumor volume of a treated group (T) and the mean tumor volume of the control group (C) is calculated.
(§4) Tumors were collected from 5 independent mice at different time points: prior to treatment (=controls with volume<200 mm3); post-treatment residual tumors (=nodules with volume<32 mm3 until minimal palpation); recurrent tumors (=regrowth with volume>62.5 mm3) Tumors or nodules were processed for (1) FFPE (formalin-fixed paraffin-embedded) or for (2) snap frozen samples: samples were cut into 3-4 mm pieces (at least 3 fragments) and snap-frozen in liquid nitrogen, then transferred to −80° C. for storage. Samples were allocated for histology, microdissection and RNA analyses.
(§5) Three categories of responders were defined based on the TGDI and T/C values.

[4] = system: HBCx-17 breast tumor xenograft; experiment: Tumor regression-regrowth assay, HBCx-17 xenograft; type: in vivo, human tumor in Swiss nude mice; conditions: A/C 2/100 or Cap 540 mg/kg, x2 cycles
From the text: as §1, §3, §4, §5

[5] = system: TC71 colorectal tumor xenograft; experiment: Tumor regression-regrowth assay, TC71 xenograft; type: in vivo, human tumor in immunodeficient mice; conditions: x1 cycle, mg/kg: Ox 10, Cap 540, I 50, B 5, Cet 5
From the text: as §1, §3, §4, §5

[6] = system: HBCx-39 breast tumor xenograft; experiment: Tumor regression-regrowth assay, HBCx-39 xenograft; type: in vivo, human tumor in Swiss nude mice; conditions: Cap 540 mg/kg, x2 cycles
From the text: as §1, §3, §4, §5

[7] = system: HBCx-24 breast tumor xenograft; experiment: Tumor regression-regrowth assay, HBCx-24 xenograft; type: in vivo, human tumor in Swiss nude mice; conditions: Doc 20 mg/kg, x2 cycles
From the text: as §1, §3, §4, §5

[8] = system: IC20DAN (a primary NSCLC tumor xenograft); experiment: Tumor regression-regrowth assay, IC20DAN xenograft; type: in vivo, human tumor in immunodeficient mice; conditions: Doc 20 mg/kg, x1 cycle
From the text: as §1, §3, §4, §5

[9] = system: 21 genes implicated in IFN/Stat pathway; experiment: Real-time quantitative RT-PCR of the 21-gene IFN/Stat signature in tumor xenografts after chemotherapy; type: in vivo, human tumor in immunodeficient mice; conditions: colorectal tumor xenograft (TC301)
Protocol: Samples were allocated for histology, microdissection and RNA analyses.
Total RNA amount was measured using the Nanodrop (ND1000, ThermoFisher) and RNA quality was assessed with the Agilent 2100 Bioanalyzer onto RNA NanoChip (Agilent Technology, Massy, France). Three samples from each condition were pooled. Two μg of total RNA were reverse-transcribed with the First strand cDNA synthesis kit (Roche Applied Science, Switzerland) according to manufacturer's instructions. For the priming method, a combination of ¾ random hexamer primers and ¼ anchored-oligo(dT)18 primers was used to avoid 3′-prime bias in cDNAs. qPCR analyses of gene transcripts was done with 5 ng of RNA for each reaction. Three housekeeping genes were used as references for relative quantification of target genes expression. […]
Validation of the microarray gene and microRNA expression data was performed by qPCR using primers specific for human sequences (eg. non-cross-reactive with murine sequences). The effect of chemotherapy on the activation of 21 genes implicated in IFN/Stat pathway (IFIT1, IFITM1, IRF9, IFI6, IFI44, IFI44L, OAS1, OAS2, LAMP3, MX1, PARP9, PARP12, SAMD9, SAMD9L, BST2, DDX60, CLDN1, STAT1, STAT2, UBE2L6, ZNFX1) and two miRNA (miR-142-3p and miR150) was analyzed in responder versus non-responder tumor models. […]

[10] = system: TC301 colorectal cancer xenograft; experiment: Tumor regression-regrowth assay, TC301 xenograft; type: in vivo, human tumor in immunodeficient mice; conditions: I 40 mg/kg, x1 cycle
From the text: as §1
as §3, with “Irinotecan (Campto®, Pfizer Holding France), 50 mg/kg, q4dx4.” left out, “calculated. […]” for “calculated.”

[11] = system: ODA14 RAV glioma xenograft; experiment: Tumor regression-regrowth assay, ODA14 RAV xenograft; type: in vivo, human tumor in immunodeficient mice; conditions: TMZ 42 mg/kg, x1 cycle
From the text: as §1, §3, §4, §5

[12] = CDDP 2/12 or VP16/IFO 12/90 mg/kg

O=C(c1cc(Cc2n[nH]c(=O)c3ccccc23)ccc1F)N1CCN(C(=O)C2CC2)CC1 [AZD2281]
anti-tumor activity [1]: significant anti-tumor activity | tumors showing complete tumor regression [1]: 2 out of 7

[NH2][Pt]([NH2])([Cl])[Cl] [CDDP, cisplatin]
% Tumor Relapse ([2]; CDDP 2/12 mg/kg): 100% | % Nodules [2, 12]: 23% | Median Nodule Apparition Time [2, 12]: 13

CCCCCOC(=O)Nc1nc(=O)n([C@@H]2O[C@H](C)[C@@H](O)[C@H]2O)cc1F [Cap, capecitabine]
% Nodules [3]: 33% | % Tumor Relapse [3]: 100% | Median Nodule Apparition Time [3]: 7 | Median Time of Relapse [3]: 11 | T/C % D21 [3]: 40% | TGDI [3]: 1.74 | median TGD × 5 [3]: 27.87 days | % Nodules [4]: 30% | % Tumor Relapse [4]: 100% | Median Nodule Apparition Time [4]: 50 | Median Time of Relapse [4]: 4 | T/C % D21 [4]: 48% | T/C % D42 [4]: 12% | TGDI [4]: >2.81 | median TGD × 5 [4]: >64 days | % Nodules [5]: 100% | % Tumor Relapse [5]: 100% | Median Nodule Apparition Time [5]: 22 | Median Time of Relapse [5]: 36 | T/C % D21 [5]: 5% | TGDI [5]: 5.11 | median TGD × 5 [5]: 66.48 days | % Nodules [6]: 56% | % Tumor Relapse [6]: 100% | Median Nodule Apparition Time [6]: 17 | Median Time of Relapse [6]: 63 | T/C % D21 [6]: 11% | TGDI [6]: >4.54 | median TGD × 5 [6]: >84 days

CC(=O)O[C@@]12CO[C@@H]1C[C@H](O)[C@@]1(C)C(=O)[C@H](O)C3=C(C)[C@@H](OC(=O)[C@H](O)[C@@H](NC(=O)OC(C)(C)C)c4ccccc4)C[C@@](O)([C@@H](OC(=O)c4ccccc4)[C@H]21)C3(C)C [Doc, docetaxel]
% Nodules [7]: 70% | % Tumor Relapse [7]: 71.4% | Median Nodule Apparition Time [7]: 10 | Median Time of Relapse [7]: 14 | T/C % D21 [7]: 21% | TGDI [7]: 2.39 | median TGD × 5 [7]: 35.44 days | % Nodules [8]: 60% | % Tumor Relapse [8]: 100% | Median Nodule Apparition Time [8]: 11 | Median Time of Relapse [8]: 9 | TGDI [8]: >4.8 | median TGD × 5 [8]: >24 days

CCc1c2c(nc3ccc(OC(=O)N4CCC(N5CCCCC5)CC4)cc13)-c1cc3c(c(=O)n1C2)COC(=O)[C@]3(O)CC [I, Irinotecan]
expression of IFN/Stat gene signature in residual nodules (qPCR) [9]: gene expression was globally increased | % Nodules [10]: 43% | % Tumor Relapse [10]: 100% | Median Nodule Apparition Time [10]: 26 | Median Time of Relapse [10]: 18

Cn1nnc2c(C(N)=O)ncn2c1=O [TMZ]
% Nodules [11]: 100% | % Tumor Relapse [11]: 100% | Median Nodule Apparition Time [11]: 7 | Median Time of Relapse [11]: 21 | TGDI [11]: 6.66 | median TGD × 5 [11]: 46.62 days
